Data published in US20060058286A1, “Methods of treating HIV infection” (priority 2004, published 2006).

Columns and labels:
HIV-1 NL4-3 [1] = test: microbe, parasite or virus in culture; settings: Human immunodeficiency virus 1, NL43, MT2, 120 h
Method: (§1) Virus and cell lines. The T-cell line, MT-2 was obtained through the AIDS Research and Reference Reagent Program, NIAID and was contributed by Dr. D. Richman. The cell line was cultured in RPMI 1640 medium supplemented with 10% fetal bovine serum, 2 mM L-glutamine and sub-cultured twice a week. The NL4-3 strain of HIV-1 was obtained from the AIDS Research and Reference Reagent Program. Both virus stocks were amplified and titered in MT-2 cells using a virus infectivity assay.
(§2) Drug Susceptibility and Cytotoxicity Assays. For drug susceptibility assays, MT-2 cells were infected with HIV-1 NL4-3 at an MOI of 0.001, and seeded into 96-well microtiter plates (2.5×10^5 cells/ml) containing serial dilutions of test compounds. […] Each drug ratio consisted of an array of 3-fold serial dilutions, and was performed in quadruplicate. The plates were incubated at 37° C./5% CO2. The MT-2 cells infected with HIV-1 NL4-3 were incubated for 5 days. On day-five post-infection, 20 μl from each well was harvested and quantitated by a reverse transcriptase (RT) assay or an MTS assay. Cytotoxicity assays were performed using uninfected cells, exposed to the same drug combinations, and incubated for five days. Cell viability was determined by an XTT assay. The CC50 values were calculated by using the exponential form of the median effect equation as mentioned below for calculation of EC50.
(§3) In this equation, Fa stands for “fraction affected,” and represents the fraction of the viral load that has been inactivated.
In carrying out the combination experiments below, the EC50 for Compound 1 and each comparator compound was determined during the course of each study, and used in the subsequent data analysis.

HIV-1 NL4-3 [2] = test: Two-drug combination study with Compound 1 (combination indices); format: cell-based; settings: for Combination Indices at 50% HIV Inhibition (Confidence Interval) / Combination Indices at 75% HIV Inhibition (Confidence Interval) / Combination Indices at 90% HIV Inhibition (Confidence Interval): 95% CI in parentheses; for Overall Result: overall antiviral effect of the two-drug combination with Compound 1, all ratios and effective levels
Method: as §1, §2
Analysis of Drug Combination Effects. For determination of CI values, drugs were diluted in a fixed ratio and multiple ratios were analyzed. The drug serial dilutions spanned a range of concentrations near the EC50 value of each compound, so that equivalent antiviral activities could be compared. Concentration-response curves were estimated for each individual drug and every combination using the median-effect equation. The equation was fit using a nonlinear regression routine (Proc Nlin) in PC SAS version 8.01 (SAS Institute Inc., SAS Version 8.01, Cary, N.C.: SAS Institute Inc., 1990).
as §3
To assess antiviral effects of different drug combination treatments, combination indices (CIs) were calculated according to Chou and Rideout. The combination index was computed as CI=[D]1/[Dm]1+[D]2/[Dm]2
In this equation [Dm]1 and [Dm]2 are the concentrations of drugs that would individually produce a specific level of effect, while [D]1 and [D]2 are the concentrations of drugs in combination that would produce the same level of effect.
Theoretically, additivity is implied if the CI is equal to one, synergy if the CI is less than one, and antagonism if the CI is greater than one. […] At best, we can construct a range that contains the likely values for the CI, given the noise in the data. In this report, these ranges are reported in parentheses next to each point estimate of the CI. […] If the range fell entirely above 1.0, we would infer antagonistic behavior. If the range were to include 1.0, we would infer additivity.

[3] = combination with Compound 1, EC50 ratio 1:1 (Compound 1:comparator)
[4] = combination with Compound 1, EC50 ratio 1:2.5 (Compound 1:comparator)
[5] = combination with Compound 1, EC50 ratio 2.5:1 (Compound 1:comparator)

EC50 (HIV-1 NL4-3 [1])	Structure (SMILES)	Combination Indices at 50% HIV Inhibition (Confidence Interval) (HIV-1 NL4-3 [2]; [3])	Combination Indices at 75% HIV Inhibition (Confidence Interval) (HIV-1 NL4-3 [2]; [3])	Combination Indices at 90% HIV Inhibition (Confidence Interval) (HIV-1 NL4-3 [2]; [3])	Combination Indices at 50% HIV Inhibition (Confidence Interval) (HIV-1 NL4-3 [2]; [4])	Combination Indices at 75% HIV Inhibition (Confidence Interval) (HIV-1 NL4-3 [2]; [4])	Combination Indices at 90% HIV Inhibition (Confidence Interval) (HIV-1 NL4-3 [2]; [4])	Combination Indices at 50% HIV Inhibition (Confidence Interval) (HIV-1 NL4-3 [2]; [5])	Combination Indices at 75% HIV Inhibition (Confidence Interval) (HIV-1 NL4-3 [2]; [5])	Combination Indices at 90% HIV Inhibition (Confidence Interval) (HIV-1 NL4-3 [2]; [5])	Overall Result (HIV-1 NL4-3 [2])	Overall Result (HIV-1 NL4-3 [2]; listed as emtricitibine)	Overall Result (HIV-1 NL4-3 [2]; listed as nevirapine)
110 nM	Nc1nc(=O)n([C@@H]2CS[C@H](CO)O2)cc1F [Emtricitabine, emtricitabine]	0.52 (0.44, 0.59)	0.40 (0.32, 0.48)	0.32 (0.22, 0.41)	0.74 (0.63, 0.84)	0.64 (0.52, 0.77)	0.57 (0.39, 0.75)	0.49 (0.42, 0.56)	0.34 (0.28, 0.41)	0.25 (0.17, 0.33)	Synergistic	synergistic	
24 nM	CC(C)c1nc(CN(C)C(=O)N[C@H](C(=O)N[C@@H](Cc2ccccc2)C[C@H](O)[C@H](Cc2ccccc2)NC(=O)OCc2cncs2)C(C)C)cs1 [Ritonavir, ritonavir]	1.35 (0.72, 1.97)	1.74 (0.61, 2.87)	2.56 (0.00, 5.18)	1.23 (0.73, 1.74)	1.24 (0.53, 1.96)	1.39 (0.13, 2.65)	1.37 (0.95, 1.80)	1.18 (0.67, 1.68)	1.13 (0.37, 1.88)	Additive		

Structure (SMILES)	EC50 (HIV-1 NL4-3 [1])	Combination Indices at 50% HIV Inhibition (Confidence Interval) (HIV-1 NL4-3 [2]; [3])	Combination Indices at 75% HIV Inhibition (Confidence Interval) (HIV-1 NL4-3 [2]; [3])	Combination Indices at 90% HIV Inhibition (Confidence Interval) (HIV-1 NL4-3 [2]; [3])	Combination Indices at 50% HIV Inhibition (Confidence Interval) (HIV-1 NL4-3 [2]; [4])	Combination Indices at 75% HIV Inhibition (Confidence Interval) (HIV-1 NL4-3 [2]; [4])	Combination Indices at 90% HIV Inhibition (Confidence Interval) (HIV-1 NL4-3 [2]; [4])	Combination Indices at 50% HIV Inhibition (Confidence Interval) (HIV-1 NL4-3 [2]; [5])	Combination Indices at 75% HIV Inhibition (Confidence Interval) (HIV-1 NL4-3 [2]; [5])	Combination Indices at 90% HIV Inhibition (Confidence Interval) (HIV-1 NL4-3 [2]; [5])	Overall Result (HIV-1 NL4-3 [2])	Overall Result (HIV-1 NL4-3 [2]; listed as emtricitibine)	Overall Result (HIV-1 NL4-3 [2]; listed as nevirapine)
Cc1ccnc2c1NC(=O)c1cccnc1N2C1CC1 [Nevirapine, nevirapine]	85 nM	0.51 (0.39, 0.63)	0.30 (0.20, 0.40)	0.18 (0.08, 0.27)	0.63 (0.42, 0.83)	0.40 (0.22, 0.59)	0.26 (0.07, 0.46)	0.52 (0.39, 0.64)	0.32 (0.22, 0.43)	0.21 (0.10, 0.31)	Synergistic		strong synergistic effects
